From ChEMBL document CHEMBL1201862, “PubChem BioAssay data set” (2004)
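1) Cells in 96-well plates. 2) Compound, 48 h, 5 concentrations. 3) Linear interpolation between surrounding doses. 4) Unreached endpoint = highest concentration. GI50 is the concentration that inhibits growth by half.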 Activity calls are given as the source filed them. No stated cut-off is given here; in the data, active = GI50 up to about 1.1 µM and inactive = higher.

Tests used:
Experiment in all cases: inhibition of tumour cell growth, NCI panel, 48 h
[1] = test system: OVCAR-8
[2] = test system: SF-539
[3] = test system: SNB-19
[4] = test system: K562
[5] = test system: ACHN
[6] = test system: SF-295
[7] = test system: 786-0
[8] = test system: HCT-15
[9] = test system: SK-OV-3
[10] = test system: HL-60
[11] = test system: MOLT-4
[12] = test system: SNB-75
[13] = test system: MDA-N
[14] = test system: SK-MEL-2
[15] = test system: HOP-92
[16] = test system: HOP-62
[17] = test system: SN12C
[18] = test system: A549
[19] = test system: HCC 2998
[20] = test system: Hs-578T
[21] = test system: MCF7
[22] = test system: NCI-H460
[23] = test system: OVCAR-4
[24] = test system: BT-549
[25] = test system: Malme-3M
[26] = test system: NCI/ADR-RES
[27] = test system: NCI-H226
[28] = test system: CAKI-1
[29] = test system: PC-3
[30] = test system: TK-10
[31] = test system: MDA-MB-435
[32] = test system: SW-620
[33] = test system: RXF 393
[34] = test system: SF-268
[35] = test system: EKVX
[36] = test system: NCI-H522
[37] = test system: CCRF-CEM
[38] = test system: SK-MEL-28
[39] = test system: M14
[40] = test system: UACC-62
[41] = test system: UACC-257
[42] = test system: COLO 205
[43] = test system: T47D
[44] = test system: U-251
[45] = test system: DU-145
[46] = test system: OVCAR-3
[47] = test system: OVCAR-5
[48] = test system: IGROV-1
[49] = test system: MDA-MB-231
[50] = test system: HT-29
[51] = test system: UO-31
[52] = test system: HCT-116
[53] = test system: NCI-H23
[54] = test system: LOX IMVI
[55] = test system: SK-MEL-5
[56] = test system: A498
[57] = test system: KM12
[58] = test system: RPMI-8226
[59] = test system: SR

Cn1cnc2c1c(=O)n(CCNCCO)c(=O)n2C
GI50 [1]: > 100 µM (inactive) | GI50 [2]: > 100 µM (inactive) | GI50 [3]: > 100 µM (inactive) | GI50 [4]: > 100 µM (inactive) | GI50 [5]: > 100 µM (inactive) | GI50 [6]: > 100 µM (inactive) | GI50 [7]: > 100 µM (inactive) | GI50 [8]: > 100 µM | GI50 [9]: > 100 µM (inactive) | GI50 [10]: > 100 µM (inactive) | GI50 [11]: > 100 µM (inactive) | GI50 [12]: > 100 µM (inactive) | GI50 [13]: > 100 µM (inactive) | GI50 [14]: > 100 µM (inactive) | GI50 [15]: > 100 µM (inactive) | GI50 [16]: > 100 µM (inactive) | GI50 [17]: > 100 µM (inactive) | GI50 [18]: > 100 µM (inactive) | GI50 [19]: > 100 µM (inactive) | GI50 [20]: > 100 µM (inactive) | GI50 [21]: > 100 µM (inactive) | GI50 [22]: > 100 µM (inactive) | GI50 [23]: > 100 µM (inactive) | GI50 [24]: > 100 µM (inactive) | GI50 [25]: > 100 µM (inactive) | GI50 [26]: > 100 µM (inactive) | GI50 [27]: > 100 µM (inactive) | GI50 [28]: > 100 µM (inactive) | GI50 [29]: > 100 µM (inactive) | GI50 [30]: > 100 µM (inactive) | GI50 [31]: > 100 µM (inactive) | GI50 [32]: > 100 µM (inactive) | GI50 [33]: > 100 µM (inactive) | GI50 [34]: > 100 µM (inactive) | GI50 [35]: > 100 µM (inactive) | GI50 [36]: > 100 µM (inactive) | GI50 [37]: > 100 µM (inactive) | GI50 [38]: > 100 µM (inactive) | GI50 [39]: > 100 µM (inactive) | GI50 [40]: > 100 µM (inactive) | GI50 [41]: > 100 µM (inactive) | GI50 [42]: > 100 µM (inactive) | GI50 [43]: > 100 µM (inactive) | GI50 [44]: > 100 µM (inactive) | GI50 [45]: > 100 µM (inactive) | GI50 [46]: > 100 µM (inactive) | GI50 [47]: > 100 µM (inactive) | GI50 [48]: > 100 µM (inactive) | GI50 [49]: > 100 µM (inactive) | GI50 [50]: > 100 µM (inactive) | GI50 [51]: > 100 µM (inactive) | GI50 [52]: > 100 µM (inactive) | GI50 [53]: > 100 µM (inactive) | GI50 [54]: > 100 µM (inactive) | GI50 [55]: > 100 µM (inactive) | GI50 [56]: > 100 µM (inactive) | GI50 [57]: > 100 µM (inactive) | GI50 [58]: > 100 µM (inactive)

O=C1C=CC[C@H](/C=C/C[C@@H](O)C[C@H](O)/C=C/c2ccccc2)O1
GI50 [1]: 14.4 µM (inactive) | GI50 [2]: 9.89 µM (inactive) | GI50 [3]: 19.2 µM (inactive) | GI50 [4]: 10.9 µM (inactive) | GI50 [5]: 14.6 µM (inactive) | GI50 [6]: 15.7 µM (inactive) | GI50 [7]: 16.1 µM (inactive) | GI50 [8]: 10.5 µM | GI50 [9]: 15 µM (inactive) | GI50 [10]: 3.56 µM (inactive) | GI50 [11]: 14 µM (inactive) | GI50 [12]: 13.6 µM (inactive) | GI50 [13]: 12.4 µM (inactive) | GI50 [14]: 12.3 µM (inactive) | GI50 [15]: 2.56 µM (inactive) | GI50 [16]: 16.5 µM (inactive) | GI50 [17]: 13.8 µM (inactive) | GI50 [18]: 15.8 µM (inactive) | GI50 [19]: 2.28 µM (inactive) | GI50 [20]: 19.3 µM (inactive) | GI50 [21]: 12.4 µM (inactive) | GI50 [22]: 15.3 µM (inactive) | GI50 [23]: 14.6 µM (inactive) | GI50 [24]: 10.8 µM (inactive) | GI50 [25]: 14.9 µM (inactive) | GI50 [26]: 19.1 µM (inactive) | GI50 [27]: 12.8 µM (inactive) | GI50 [28]: 6.4 µM (inactive) | GI50 [29]: 14.5 µM (inactive) | GI50 [30]: 11.7 µM (inactive) | GI50 [31]: 11.3 µM (inactive) | GI50 [32]: 13.5 µM (inactive) | GI50 [33]: 6.89 µM (inactive) | GI50 [34]: 21.8 µM (inactive) | GI50 [35]: 12 µM (inactive) | GI50 [36]: 4.25 µM (inactive) | GI50 [37]: 3.74 µM (inactive) | GI50 [38]: 16.7 µM (inactive) | GI50 [39]: 14.4 µM (inactive) | GI50 [40]: 15 µM (inactive) | GI50 [41]: 13.9 µM (inactive) | GI50 [42]: 7.87 µM (inactive) | GI50 [43]: 14.3 µM (inactive) | GI50 [44]: 11.9 µM (inactive) | GI50 [45]: 13.3 µM (inactive) | GI50 [46]: 11.5 µM (inactive) | GI50 [47]: 15.1 µM (inactive) | GI50 [48]: 13.6 µM (inactive) | GI50 [49]: 10.5 µM (inactive) | GI50 [50]: 11.4 µM (inactive) | GI50 [51]: 13.2 µM (inactive) | GI50 [52]: 5.09 µM (inactive) | GI50 [53]: 11.3 µM (inactive) | GI50 [54]: 2.92 µM (inactive) | GI50 [55]: 13.7 µM (inactive) | GI50 [56]: 14.1 µM (inactive) | GI50 [57]: 12.3 µM (inactive)

CC1=CC(=O)C(=C(C)C)CC1
GI50 [1]: > 100 µM (inactive) | GI50 [3]: > 100 µM (inactive) | GI50 [4]: > 100 µM (inactive) | GI50 [5]: > 100 µM (inactive) | GI50 [6]: > 100 µM (inactive) | GI50 [7]: > 100 µM (inactive) | GI50 [8]: > 100 µM | GI50 [9]: > 100 µM (inactive) | GI50 [10]: 53.6 µM (inactive) | GI50 [11]: > 100 µM (inactive) | GI50 [12]: > 100 µM (inactive) | GI50 [13]: > 100 µM (inactive) | GI50 [16]: > 100 µM (inactive) | GI50 [17]: > 100 µM (inactive) | GI50 [18]: > 100 µM (inactive) | GI50 [20]: > 100 µM (inactive) | GI50 [21]: > 100 µM (inactive) | GI50 [22]: > 100 µM (inactive) | GI50 [23]: > 100 µM (inactive) | GI50 [24]: > 100 µM (inactive) | GI50 [25]: > 100 µM (inactive) | GI50 [26]: > 100 µM (inactive) | GI50 [27]: > 100 µM (inactive) | GI50 [59]: 48 µM (inactive) | GI50 [28]: > 100 µM (inactive) | GI50 [29]: > 100 µM (inactive) | GI50 [30]: > 100 µM (inactive) | GI50 [31]: > 100 µM (inactive) | GI50 [33]: 26.1 µM (inactive) | GI50 [34]: > 100 µM (inactive) | GI50 [35]: > 100 µM (inactive) | GI50 [36]: > 100 µM (inactive) | GI50 [37]: 28.9 µM (inactive) | GI50 [38]: > 100 µM (inactive) | GI50 [39]: > 100 µM (inactive) | GI50 [40]: > 100 µM (inactive) | GI50 [41]: > 100 µM (inactive) | GI50 [42]: > 10 µM (inactive) | GI50 [43]: > 100 µM (inactive) | GI50 [44]: > 100 µM (inactive) | GI50 [45]: > 100 µM (inactive) | GI50 [46]: > 100 µM (inactive) | GI50 [47]: > 100 µM (inactive) | GI50 [48]: > 100 µM (inactive) | GI50 [49]: > 100 µM (inactive) | GI50 [50]: > 100 µM (inactive) | GI50 [51]: > 100 µM (inactive) | GI50 [52]: > 100 µM (inactive) | GI50 [53]: > 100 µM (inactive) | GI50 [54]: > 100 µM (inactive) | GI50 [55]: > 100 µM (inactive) | GI50 [57]: > 100 µM (inactive)
